Consider seven compounds from patent US20250332300A1 (priority 2024, published 2025).

The structures appear in SMILES notation. Structures can show the parent of a compound that is named as a salt. Where two headings read alike, the source gives them in different places. Starred links: 1 amine or outer side, 2 acyl side, 3 side chain; linkers in the order of their positions; H or OH if unused. Positions of bridges follow the written chain, without caps; N, C: chain ends. Non-standard residues stand in square brackets, D forms with d. Residues, ends and D or L forms follow the SMILES beside them. Trp(5-OH) = N[C@@H](Cc1c[nH]c2ccc(O)cc12)C(=O)O; NMePhe(4-F) = CN[C@@H](Cc1ccc(F)cc1)C(=O)O; NMehPhe = CN[C@@H](CCc1ccccc1)C(=O)O; NMeAhp(2) = CCCCC[C@H](NC)C(=O)O; Aad = N[C@@H](CCCC(=O)O)C(=O)O; Gly(cPr) = N[C@H](C(=O)O)C1CC1; NMeK = CN[C@@H](CCCCN)C(=O)O; NMeDap = CN[C@@H](CN)C(=O)O; NMeC = CN[C@@H](CS)C(=O)O; NMeS = CN[C@@H](CO)C(=O)O; Dap = NC[C@H](N)C(=O)O; X5 = O=C(C[*:2])[*:1]

What all share (assay type): binding
Assay [1] addresses T1, mouse HER2 (23-653) (Mus musculus, UniProt P70424). The assay can be described thus: TR-FRET competition assay for peptide potency, mouse HER2. The arrangement: mouse HER2 (23-653) using a Cy5 labeled peptide as a probe; made in house; host or cells: mammalian cells. To be noted: 0.1 nM mouse HER2, 24 h incubation. A general note: In TR-FRET formats the signal depends on donor and acceptor labels being close together.

Assay [2] has as its target human HER2 (23-652) (Homo sapiens, UniProt P04626). The assay can be described thus: Surface plasmon resonance (SPR) for assessment of peptide affinity, human HER2. More on the design: towards human HER2 (23-652) and mouse HER2 (23-653); made in house. A digest of the protocol: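 Binding kinetics fitted from sensorgrams with 280 s peptide association then 3000 s dissociation (30 uL/min), using HER2 (23-652) either directly immobilized (SA/CM5) or anti-Fc-captured; 3 M magnesium chloride used for regeneration.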
In general terms: SPR reads the build-up and loss of mass on a sensor chip optically.

The target of assay [3] is T1, mouse HER2 (23-653). The assay can be described thus: Surface plasmon resonance (SPR) for assessment of peptide affinity, mouse HER2. More on the design: mouse HER2 (23-653) using a Cy5 labeled peptide as a probe; made in house. The text has this:
Each protein was immobilized either onto a SA sensorchip (Cytiva, BR-1005-31) or CM5 sensorchip (Cytiva, BR-1005-30) to a density of 800-2000 RU.

Setting [4] is: TR-FRET competition with Cy5 labeled peptide probe, read-out: moHER2 TR-FRET IC50.
Where [5] appears, read: SPR, human HER2 extracellular domain, 25° C., 1:1 binding model, read-out: huHER2-SPR-ONC KD.
Setting [6] is: SPR, mouse HER2 extracellular domain, 25° C., 1:1 binding model, read-out: moHER2-SPR-ONC KD.

`CCCCC[C@H]1C(=O)N(C)[C@@H](CCCCNC(C)=O)C(=O)N[C@@H](Cc2c[nH]c3ccc(O)cc23)C(=O)N[C@@H](Cc2c[nH]c3ccccc23)C(=O)N[C@@H](C2CC2)C(=O)N(C)[C@H](C(=O)N(C)[C@@H](Cc2ccc(F)cc2)C(N)=O)CNC(=O)CCC[C@H](NC(C)=O)C(=O)N[C@@H](Cc2ccc(O)cc2)C(=O)N[C@@H](CO)C(=O)N1C` [Example A14, (3S,6S,9S,12S,15S,18S,21S,24S,27S)-9-((1H-indol-3-yl)methyl)-27-acetamido-15-(4-acetamidobutyl)-N-((S)-1-amino-3-(4-fluorophenyl)-1-oxopropan-2-yl)-6-cyclopropyl-12-((5-hydroxy-1H-indol-3-yl)methyl)-24-(4-hydroxybenzyl)-21-(hydroxymethyl)-N,4,16,19-tetramethyl-5,8,11,14,17,20,23,26,31-nonaoxo-18-pentyl-1,4,7,10,13,16,19,22,25-nonaazacyclohentriacontane-3-carboxamide] (Ac-[Aad]YS[NMeAhp(2)][NMeK](Ac)[Trp(5-OH)]W[Gly(cPr)][NMeDap][NMePhe(4-F)]-NH2; lactam 1-9): the IC50 in assay [1] (setting [4]) came out at 0.0037 µM. Besides, the Kd is 0.0013 µM in assay [2] (setting [5]) and 0.0012 µM in assay [3] (setting [6]).

Turning to `CC(=O)N[C@H]1CCCC(=O)NC[C@@H](C(=O)N(C)[C@@H](Cc2ccc(F)cc2)C(=O)N2CCC[C@H]2C(N)=O)N(C)C(=O)[C@H](C2CC2)NC(=O)[C@H](Cc2c[nH]c3ccccc23)NC(=O)[C@H](Cc2c[nH]c3ccc(O)cc23)NC(=O)[C@H](CO)N(C)C(=O)[C@H](CCc2ccccc2)N(C)C(=O)[C@H](CO)NC(=O)[C@H](Cc2ccc(O)cc2)NC1=O` [Example A26, (3S,6S,9S,12S,15S,18S,21S,24S,27S)-9-((1H-indol-3-yl)methyl)-27-acetamido-N-((S)-1-((S)-2-carbamoylpyrrolidin-1-yl)-3-(4-fluorophenyl)-1-oxopropan-2-yl)-6-cyclopropyl-12-((5-hydroxy-1H-indol-3-yl)methyl)-24-(4-hydroxybenzyl)-15,21-bis(hydroxymethyl)-N,4,16,19-tetramethyl-5,8,11,14,17,20,23,26,31-nonaoxo-18-phenethyl-1,4,7,10,13,16,19,22,25-nonaazacyclohentriacontane-3-carboxamide], in assay [1] (setting [4]), the IC50 came out at 0.013 µM. In addition, the Kd is 0.011 µM in assay [2] (setting [5]) and 0.0084 µM in assay [3] (setting [6]).

`CC(=O)N[C@H]1CCCC(=O)NC[C@@H](C(=O)N(C)[C@@H](Cc2ccc(F)cc2)C(N)=O)N(C)C(=O)[C@H](C2CC2)NC(=O)[C@H](Cc2c[nH]c3ccccc23)NC(=O)[C@H](Cc2c[nH]c3ccc(O)cc23)NC(=O)[C@H](CO)N(C)C(=O)[C@H](CCc2ccccc2)N(C)C(=O)[C@H](CO)NC(=O)[C@H](Cc2ccc(O)cc2)NC1=O` [Example A29, (3S,6S,9S,12S,15S,18S,21S,24S,27S)-9-((1H-indol-3-yl)methyl)-27-acetamido-N-((S)-1-amino-3-(4-fluorophenyl)-1-oxopropan-2-yl)-6-cyclopropyl-12-((5-hydroxy-1H-indol-3-yl)methyl)-24-(4-hydroxybenzyl)-15,21-bis(hydroxymethyl)-N,4,16,19-tetramethyl-5,8,11,14,17,20,23,26,31-nonaoxo-18-phenethyl-1,4,7,10,13,16,19,22,25-nonaazacyclohentriacontane-3-carboxamide] (Ac-[Aad]YS[NMehPhe][NMeS][Trp(5-OH)]W[Gly(cPr)][NMeDap][NMePhe(4-F)]-NH2; lactam 1-9): the IC50 in assay [1] (setting [4]) came to 0.053 µM. The values for the Kd in assay [2] (setting [5]) and in assay [3] (setting [6]) were 0.03 µM and 0.027 µM, respectively.

With `CC(=O)N[C@H]1CCC(=O)NC[C@@H](C(=O)N(C)[C@@H](Cc2ccc(F)cc2)C(=O)N2CCC[C@H]2C(N)=O)N(C)C(=O)[C@H](C2CC2)NC(=O)[C@H](Cc2c[nH]c3ccccc23)NC(=O)[C@H](Cc2c[nH]c3ccc(O)cc23)NC(=O)[C@H](CO)N(C)C(=O)[C@H](CCc2ccccc2)N(C)C(=O)[C@H](CO)NC(=O)[C@H](Cc2ccc(O)cc2)NC1=O` [Example A30, (3S,6S,9S,12S,15S,18S,21S,24S,27S)-9-((1H-indol-3-yl)methyl)-27-acetamido-N-((S)-1-((S)-2-carbamoylpyrrolidin-1-yl)-3-(4-fluorophenyl)-1-oxopropan-2-yl)-6-cyclopropyl-12-((5-hydroxy-1H-indol-3-yl)methyl)-24-(4-hydroxybenzyl)-15,21-bis(hydroxymethyl)-N,4,16,19-tetramethyl-5,8,11,14,17,20,23,26,30-nonaoxo-18-phenethyl-1,4,7,10,13,16,19,22,25-nonaazacyclotriacontane-3-carboxamide], in assay [1] (setting [4]), the IC50 worked out at 0.067 µM. Further, the figures for the Kd in assay [2] (setting [5]) and in assay [3] (setting [6]) were 0.031 µM and 0.03 µM, respectively.

Regarding `CN1C(=O)[C@H](CO)NC(=O)[C@H](Cc2ccc(O)cc2)NC(=O)[C@@H](N)CCC(=O)NC[C@@H](C(=O)N(C)[C@@H](Cc2ccc(F)cc2)C(N)=O)N(C)C(=O)[C@H](C2CC2)NC(=O)[C@H](Cc2c[nH]c3ccccc23)NC(=O)[C@H](Cc2c[nH]c3ccc(O)cc23)NC(=O)[C@H](CCCCNC(=O)C(F)(F)F)N(C)C(=O)[C@@H]1CCc1ccccc1` [Example A33, (3S,6S,9S,12S,15S,18S,21S,24S,27S)-9-((1H-indol-3-yl)methyl)-27-amino-N-((S)-1-amino-3-(4-fluorophenyl)-1-oxopropan-2-yl)-6-cyclopropyl-12-((5-hydroxy-1H-indol-3-yl)methyl)-24-(4-hydroxybenzyl)-21-(hydroxymethyl)-N,4,16,19-tetramethyl-5,8,11,14,17,20,23,26,30-nonaoxo-18-phenethyl-15-(4-(2,2,2-trifluoroacetamido)butyl)-1,4,7,10,13,16,19,22,25-nonaazacyclotriacontane-3-carboxamide TFA salt], the IC50 in assay [1] (moHER2 TR-FRET IC50, TR-FRET competition with Cy5 labeled peptide probe) turned out to be 0.032 µM. For the same compound, the Kd in assay [2] came to 0.015 µM; in assay [3] it was 0.023 µM.

Turning to `CC(=O)N[C@H]1CNC(=O)CSC[C@@H](C(=O)N(C)[C@@H](Cc2ccc(F)cc2)C(N)=O)N(C)C(=O)[C@H](C2CC2)NC(=O)[C@H](Cc2c[nH]c3ccccc23)NC(=O)[C@H](Cc2c[nH]c3ccc(O)cc23)NC(=O)[C@H](CO)N(C)C(=O)[C@H](CCc2ccccc2)N(C)C(=O)[C@H](CO)NC(=O)[C@H](Cc2ccc(O)cc2)NC1=O` [Example A50, (3R,6S,9S,12S,15S,18S,21S,24S,27S)-9-((1H-indol-3-yl)methyl)-27-acetamido-N—((S)-1-amino-3-(4-fluorophenyl)-1-oxopropan-2-yl)-6-cyclopropyl-12-((5-hydroxy-1H-indol-3-yl)methyl)-24-(4-hydroxybenzyl)-15,21-bis(hydroxymethyl)-N,4,16,19-tetramethyl-5,8,11,14,17,20,23,26,30-nonaoxo-18-phenethyl-1-thia-4,7,10,13,16,19,22,25,29-nonaazacyclohentriacontane-3-carboxamide] (Ac-[Dap]YS[NMehPhe][NMeS][Trp(5-OH)]W[Gly(cPr)][NMeC][NMePhe(4-F)]-NH2; linker 1-9 via X5), the IC50 in assay [1] (setting [4]) came out at 0.43 µM. In addition, the Kd in assay [2] (setting [5]) was 0.117 µM; in assay [3] (setting [6]), 0.122 µM.

In the case of `CC(=O)N[C@H]1CCCC(=O)NC[C@@H](C(=O)N(C)[C@@H](Cc2ccc(F)cc2)C(=O)N[C@@H](CCCCNC(=O)CN2CCN(CC(=O)O)CCN(CC(=O)O)CCN(CC(=O)O)CC2)C(N)=O)N(C)C(=O)[C@H]([C@H](C)O)NC(=O)[C@H](Cc2c[nH]c3ccccc23)NC(=O)[C@H](Cc2c[nH]c3ccc(O)cc23)NC(=O)[C@H](CCCCNC(=O)CO)N(C)C(=O)[C@H](CCc2ccccc2)N(C)C(=O)[C@H](CO)NC(=O)[C@H](Cc2ccc(O)cc2)NC1=O` [Example C21], the Kd in assay [2] (setting [5]) stood at 0.0003 µM; in assay [3] (setting [6]) it was 0.0007 µM.

By IC50 is commonly meant the concentration that inhibits the measured activity by half. As a reminder, the Kd is the free concentration of one partner at which half of the binding sites on the other are occupied at equilibrium, for simple one-to-one binding.
